# Results: patent publication US20260335282A1, “NOVEL 3-ARYLIDENE-2-INDOLINONE DERIVATIVES FOR THERAPEUTIC USE” (ISTANBUL UNIVERSITESI REKTORLUGU, priority 2022, published 2026)
# What was measured:
# MCF-7 cells = test: MTT cytotoxicity, breast cancer cells MCF-7; format: cell-based, human; settings: MTT, no * mark (incubation time not specified)
# Method in brief: (§1)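 Viability was quantified by MTT reduction following 48 and/or 72 h compound exposure at four concentrations (0.1, 1, 5, 10 μM). Values are percentages of DMSO-treated controls, with IC50 fitted from dose-response data.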
# MDA-MB-231 cells = test: MTT cytotoxicity, breast cancer cells MDA-MB-231; format: cell-based, human; settings: read-out: IC50, MDA-MB-231 (breast); MTT, no * mark (incubation time not given)
# Method in brief: as §1
# MCF-10F/Beas2b cells = test: MTT cytotoxicity, healthy cells MCF-10F/Beas2b; format: cell-based, human
# Method in brief: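 Cells exposed to compounds at 0.1, 1, 5 and 10 μM (DMSO vehicle-matched controls) for 48 and/or 72 h, then MTT 4 h; formazan in DMSO read at 570/630 nm. Viability as % of control; IC50 from dose-response curves. Healthy cells tested at 10-fold the cancer-cell IC50 concentration.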
# HUVEC cells = test: MTT cytotoxicity, healthy cells HUVEC; format: cell-based, human
# Method in brief: as §1
# A549 cells = test: MTT cytotoxicity, lung cancer cells A549; format: cell-based, human; settings: no * mark (incubation time not specified)
# Method in brief: as §1
# CAKI-1 cells = test: MTT cytotoxicity, kidney cancer cells CAKI-1; format: cell-based, human; settings: *: effective 72 hours after incubation
# Method in brief: as §1
# MIAPaCa-2 cells = test: MTT cytotoxicity, pancreas cancer cells MIAPaCa-2; format: cell-based, human; settings: MTT, no * mark (incubation time not specified)
# Method in brief: (§2)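 Cells were seeded at 5000 per well and treated next day with compound at 0.1, 1, 5 and 10 μM (final) for 48 and/or 72 h, with matched DMSO controls. MTT was added for 4 h and formazan was dissolved in DMSO and read at 570/630 nm. % viability against control gave IC50 from dose-response curves.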
# HCT-116 cells = test: MTT cytotoxicity, colon cancer cells HCT-116; format: cell-based, human; settings: no * mark (incubation time not specified)
# Method in brief: as §2
# [1] = tested on: general tyrosine kinase activity in HCT116 colon cancer cells; test: General tyrosine kinase activity (ELISA) in HCT-116 cells; format: cell-based, human; settings: 72 hours, IC50 concentration
# Experimental: Takara Universal Tyrosine Kinase Assay Kit is used to determine the effects of 11 2-indolinone compounds (Y1, Y2, Y3, Y4, Y5, Y8, […], […], Y21, Y23, 20C, 22C) on general tyrosine kinase activity in cancer cells. Cells are seeded in 6-well plates (4.10^5 cells/well) and the IC50 concentration of each selected molecule is performed to the cells for 48 or 72 hours. Cells in the control group are incubated with medium only. At the end of the incubation period, the cells in each well are washed with PBS and cells are removed from the wells using a cell scraper via 1 ml of the extraction buffer in the kit. The cell lysate is transferred to ependorf tubes and centrifuged at 10.000 g for 10 minutes at +4° C. and the supernatant is used as a sample for activity determination. […] The reaction is finished by adding 100 μl of stop solution to each well and the optical density in each well is measured at 405 nm with a microplate reader (BioTek, USA). The tyrosine kinase activity in each sample is calculated from the standard curve obtained from the absorbance values of the standard solutions with the kit (Chan W Y, Lau P M, Yeung K W, Kong S K. The second generation tyrosine kinase inhibitor dasatinib induced eryptosis in human erythrocytes—An in vitro study. Toxicol Lett. 2018; 295:10-21). […]
# HT-29 cells = test: MTT cytotoxicity, colon cancer cells HT-29; format: cell-based, human; settings: MTT, no * mark (incubation time not specified)
# Method in brief: as §2
# A498 cells = test: MTT cytotoxicity, kidney cancer cells A498; format: cell-based, human; settings: MTT, *: effective 72 hours after incubation
# Method in brief: as §1
# FGFR1 = settings: Liang et al. 2012; cited from earlier work
# [2] = tested on: BL6-B16 melanoma and E0771 breast cancer cells; settings: Morigi et al. 2019; cited from earlier work
smiles,measurement,setting,value
Cc1cccc(CN2C(=O)/C(=C\c3c[nH]c4ccccc34)c3cc(Cl)ccc32)c1 [20C],IC50,MCF-7 cells,> 10 µM
same,IC50,MDA-MB-231 cells,> 10 µM
same,"Selectivite Index, MCF-10F/Beas2b (Table 2)","MCF-10F/Beas2b cells; MCF-10F/Beas2b vs colon or pancreas cancer cells, cancer line not given",13.63
same,IC50,"MCF-10F/Beas2b cells; MTT, *: effective 72 hours after incubation",3.68 µM
same,"Selectivite Index, HUVEC (Table 2)","HUVEC cells; HUVEC vs colon or pancreas cancer cells, cancer line not given",5.63
same,IC50,"HUVEC cells; MTT, no * mark (incubation time not specified)",1.52 µM
same,IC50,A549 cells,4.04 µM
same,IC50,CAKI-1 cells,6.19 µM
same,IC50,MIAPaCa-2 cells,1.39 µM
same,IC50,HCT-116 cells,0.27 µM
same,tyrosine kinase activity compared to control,[1],did not cause a significant change
same,IC50,HT-29 cells,1.16 µM
same,IC50,A498 cells,0.97 µM
"Cc1c[nH]c(/C=C2\C(=O)Nc3ccccc32)c1CCC(=O)O [SU5402, 3-[4-methyl-2-[(Z)-(2-oxo-1H-indol-3-ylidene)methyl]-1H-pyrrol-3-yl]propanoic acid]",inhibitory activity against FGFR1 vs SU4984,FGFR1,better inhibitory activity against FGFR1 than SU4984
O=C1Nc2ccccc2/C1=C/c1nc2sccn2c1-c1ccncc1 [I],tumor volume,[2],reduction in tumor volume
